Measured values from ChEMBL document CHEMBL1201862, “PubChem BioAssay data set” (2004).
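Assay format: 96-well plates, 48-hour exposure. The concentration for 50% growth inhibition is given as GI50.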 Calls of active or inactive are those of the source. No stated cut-off is given here; in the data, active = GI50 up to about 1.1 µM and inactive = higher.

Legend:
Experiment in all cases: NCI tumour cell line growth inhibition, 48 h
SNB-19 = tested on: SNB-19
LXFL 529 = tested on: LXFL 529
U-251 = tested on: U-251
M14 = tested on: M14
K562 = tested on: K562
A498 = tested on: A498
IGROV-1 = tested on: IGROV-1
RXF 393 = tested on: RXF 393
HCT-116 = tested on: HCT-116
COLO 205 = tested on: COLO 205
UACC-62 = tested on: UACC-62
XF498 = tested on: XF498
CAKI-1 = tested on: CAKI-1
RPMI-8226 = tested on: RPMI-8226
MDA-MB-435 = tested on: MDA-MB-435
LOX IMVI = tested on: LOX IMVI
DMS-114 = tested on: DMS-114
T47D = tested on: T47D
UO-31 = tested on: UO-31
NCI-H226 = tested on: NCI-H226
NCI-H460 = tested on: NCI-H460
Malme-3M = tested on: Malme-3M
HOP-62 = tested on: HOP-62
SNB-78 = tested on: SNB-78
SR = tested on: SR
UACC-257 = tested on: UACC-257
OVCAR-5 = tested on: OVCAR-5
DLD-1 = tested on: DLD-1
SF-268 = tested on: SF-268
DMS-273 = tested on: DMS-273
SF-295 = tested on: SF-295
SK-MEL-5 = tested on: SK-MEL-5
OVCAR-8 = tested on: OVCAR-8
MDA-MB-231 = tested on: MDA-MB-231
SW-620 = tested on: SW-620
HOP-92 = tested on: HOP-92
SN12C = tested on: SN12C
NCI-H23 = tested on: NCI-H23
A549 = tested on: A549
NCI-H522 = tested on: NCI-H522
MOLT-4 = tested on: MOLT-4
SF-539 = tested on: SF-539
Hs-578T = tested on: Hs-578T
DU-145 = tested on: DU-145
HT-29 = tested on: HT-29
TK-10 = tested on: TK-10
SK-MEL-2 = tested on: SK-MEL-2
SK-OV-3 = tested on: SK-OV-3
KM-20L2 = tested on: KM-20L2
MCF7 = tested on: MCF7
OVCAR-4 = tested on: OVCAR-4
HCT-15 = tested on: HCT-15
BT-549 = tested on: BT-549
OVCAR-3 = tested on: OVCAR-3
HCC 2998 = tested on: HCC 2998
786-0 = tested on: 786-0
MDA-N = tested on: MDA-N
ACHN = tested on: ACHN
HOP-18 = tested on: HOP-18
EKVX = tested on: EKVX
KM12 = tested on: KM12
SNB-75 = tested on: SNB-75
SK-MEL-28 = tested on: SK-MEL-28
NCI/ADR-RES = tested on: NCI/ADR-RES
CCRF-CEM = tested on: CCRF-CEM
PC-3 = tested on: PC-3
HL-60 = tested on: HL-60

Measured: GI50

COc1cc(-c2ccc(Nc3ccccc3C(=O)O)c(OC)c2)ccc1Nc1ccccc1C(=O)O
active: HCT-116 0.792 µM | SR 0.557 µM
inactive: SNB-19 10.2 µM | LXFL 529 1.68 µM | U-251 3.3 µM | M14 26.5 µM | K562 1.35 µM | A498 > 47.2 µM | IGROV-1 21 µM | RXF 393 21.2 µM | COLO 205 48.3 µM | UACC-62 1.46 µM | XF498 > 40.1 µM | CAKI-1 8.69 µM | RPMI-8226 2.33 µM | MDA-MB-435 8.59 µM | LOX IMVI 1.28 µM | DMS-114 25.4 µM | T47D 11.2 µM | UO-31 13.6 µM | NCI-H226 22.6 µM | NCI-H460 1.94 µM | Malme-3M 39.6 µM | HOP-62 8.57 µM | SNB-78 32 µM | UACC-257 20.5 µM | OVCAR-5 > 37.5 µM | DLD-1 > 28 µM | SF-268 11.4 µM | DMS-273 1.81 µM | SF-295 11.9 µM | SK-MEL-5 16.6 µM | OVCAR-8 8.95 µM | MDA-MB-231 13.7 µM | SW-620 7.38 µM | HOP-92 41 µM | SN12C 9.91 µM | NCI-H23 18.3 µM | A549 4.22 µM | NCI-H522 8.87 µM | MOLT-4 1.13 µM | SF-539 5.45 µM | Hs-578T 11.3 µM | DU-145 8.65 µM | HT-29 31 µM | TK-10 36.6 µM | SK-MEL-2 19.3 µM | SK-OV-3 23.4 µM | KM-20L2 > 56 µM | MCF7 5.08 µM | OVCAR-4 28.2 µM | BT-549 15.8 µM | OVCAR-3 20.6 µM | HCC 2998 21.7 µM | 786-0 4.52 µM | MDA-N 10 µM | ACHN 8.69 µM | HOP-18 > 100 µM | EKVX 58.7 µM | KM12 7.53 µM | SNB-75 30.2 µM | SK-MEL-28 33.8 µM | NCI/ADR-RES > 46.2 µM | CCRF-CEM 2.38 µM | PC-3 2 µM | HL-60 1.91 µM
0.619 µM: HCT-15
